Source: patent US9302991B2, “Arylamide derivatives as TTX-S blockers” (RaQualia Pharma Inc., priority 2010, dated 2016)

molecular target: T1, human Nav1.7 channels (Homo sapiens, UniProt Q15858); assay: FRET assay, human Nav1.7 (EFS on FDSS); type: cell-based; details: CHO cells expressing human Nav1.7, read-out: IC50 against Nav1.7
T1 construct: expressed in transfected cells; host or cells: CHO
How it was run: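 IC50 was derived from normalized 440 nm fluorescence ratios of the EFS-evoked membrane-potential response read on FDSS. Recombinant CHO cells were sequentially dye-loaded with coumarin/oxonol FRET pair at room temperature in pH 7.4 buffer before compound addition.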

T1 sequence (Q15858 whole entry): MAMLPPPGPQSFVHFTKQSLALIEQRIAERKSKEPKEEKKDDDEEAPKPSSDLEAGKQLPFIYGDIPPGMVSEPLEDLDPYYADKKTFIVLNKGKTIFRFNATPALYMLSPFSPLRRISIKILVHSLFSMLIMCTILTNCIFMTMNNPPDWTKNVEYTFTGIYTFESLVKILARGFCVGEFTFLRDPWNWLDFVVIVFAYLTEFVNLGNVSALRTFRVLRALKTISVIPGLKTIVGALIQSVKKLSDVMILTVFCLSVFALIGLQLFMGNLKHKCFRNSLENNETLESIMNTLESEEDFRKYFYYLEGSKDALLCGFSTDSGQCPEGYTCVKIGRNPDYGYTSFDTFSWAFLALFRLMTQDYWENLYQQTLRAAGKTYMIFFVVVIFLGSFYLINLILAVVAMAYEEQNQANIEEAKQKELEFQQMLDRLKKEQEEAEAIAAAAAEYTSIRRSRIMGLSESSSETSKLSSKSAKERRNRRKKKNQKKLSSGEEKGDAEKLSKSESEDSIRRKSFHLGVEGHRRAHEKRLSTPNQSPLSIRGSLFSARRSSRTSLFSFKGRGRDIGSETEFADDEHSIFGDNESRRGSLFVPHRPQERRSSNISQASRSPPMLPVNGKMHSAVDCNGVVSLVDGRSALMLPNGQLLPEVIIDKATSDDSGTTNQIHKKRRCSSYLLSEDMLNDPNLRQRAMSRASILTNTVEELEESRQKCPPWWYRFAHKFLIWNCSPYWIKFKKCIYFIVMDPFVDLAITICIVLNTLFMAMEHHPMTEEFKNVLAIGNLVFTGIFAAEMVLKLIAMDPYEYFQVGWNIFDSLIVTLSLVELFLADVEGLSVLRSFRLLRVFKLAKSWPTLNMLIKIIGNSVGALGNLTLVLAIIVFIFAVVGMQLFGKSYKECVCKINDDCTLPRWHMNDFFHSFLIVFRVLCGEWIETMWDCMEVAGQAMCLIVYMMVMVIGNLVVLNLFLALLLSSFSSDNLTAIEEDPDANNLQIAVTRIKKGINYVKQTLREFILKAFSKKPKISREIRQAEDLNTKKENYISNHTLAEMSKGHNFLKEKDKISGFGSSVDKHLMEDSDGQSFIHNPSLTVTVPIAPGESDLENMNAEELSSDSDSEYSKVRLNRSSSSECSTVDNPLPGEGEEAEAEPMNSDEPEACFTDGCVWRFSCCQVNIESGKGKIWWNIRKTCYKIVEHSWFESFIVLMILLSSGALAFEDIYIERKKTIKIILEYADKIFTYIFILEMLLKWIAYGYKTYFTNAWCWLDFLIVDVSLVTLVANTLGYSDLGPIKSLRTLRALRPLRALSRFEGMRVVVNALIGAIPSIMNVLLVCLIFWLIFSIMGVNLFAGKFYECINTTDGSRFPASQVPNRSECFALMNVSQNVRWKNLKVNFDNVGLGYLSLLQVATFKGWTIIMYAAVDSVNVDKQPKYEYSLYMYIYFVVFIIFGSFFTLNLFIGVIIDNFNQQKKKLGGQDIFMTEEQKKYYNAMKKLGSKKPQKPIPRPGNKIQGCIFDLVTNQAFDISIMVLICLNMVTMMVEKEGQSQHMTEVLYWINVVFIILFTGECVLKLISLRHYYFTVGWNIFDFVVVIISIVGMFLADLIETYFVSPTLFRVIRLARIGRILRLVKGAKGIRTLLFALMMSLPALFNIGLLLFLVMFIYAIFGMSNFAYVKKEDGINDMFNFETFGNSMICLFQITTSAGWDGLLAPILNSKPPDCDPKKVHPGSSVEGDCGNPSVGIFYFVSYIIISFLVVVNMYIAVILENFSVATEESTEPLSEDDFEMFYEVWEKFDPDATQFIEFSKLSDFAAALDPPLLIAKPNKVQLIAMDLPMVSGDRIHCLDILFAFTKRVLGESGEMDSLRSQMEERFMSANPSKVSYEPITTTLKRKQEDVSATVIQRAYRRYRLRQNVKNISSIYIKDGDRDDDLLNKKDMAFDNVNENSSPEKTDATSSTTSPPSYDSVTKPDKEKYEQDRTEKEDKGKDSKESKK

IC50, < 1 µM:
CC(C)C(=O)Nc1cc(C(=O)NC(C)c2cnc(OCC(F)(F)F)c(F)c2)ccn1 (single isomer, unassigned) [Example 220, N-(1-(5-fluoro-6-(2,2,2-trifluoroethoxy)pyridin-3-yl)ethyl)-2-isobutyramidoisonicotinamide]
CCCC(=O)Nc1cc(C(=O)NC(C)c2cnc(OCC(F)F)c(C)c2)ccn1 (single isomer, unassigned) [Example 633, 2-butyramido-N-(1-(6-(2,2-difluoroethoxy)-5-methylpyridin-3-yl)ethyl)isonicotinamide]
CCCC(=O)Nc1cc(C(=O)NCc2ccc(OCC(F)(F)F)nc2N2CCCCC2)ccn1 [Example 308, 2-butyramido-N-((2-(piperidin-1-yl)-6-(2,2,2-trifluoroethoxy)pyridin-3-yl)methyl)isonicotinamide]
C=CC(=O)Nc1cc(C(=O)NC(C)c2ccc(OCC(F)(F)F)nc2)cc(C)n1 (single isomer, unassigned) [Example 482, 2-acrylamido-6-methyl-N-(1-(6-(2,2,2-trifluoroethoxy)pyridin-3-yl)ethyl)isonicotinamide]
CCC(=O)Nc1cc(C(=O)NCc2cccc(C(F)(F)F)c2OC)ccn1 [Example 1017, N-(2-methoxy-3-(trifluoromethyl)benzyl)-2-propionamidoisonicotinamide]
Cc1cc(C(=O)NCc2cccc(C(F)(F)F)c2)cc(NC(=O)C2CC2)n1 [Example 852, 2-(cyclopropanecarboxamido)-6-methyl-N-(3-(trifluoromethyl)benzyl)isonicotinamide]
CC(C)C(=O)Nc1cc(C(=O)NC(C)c2ccc(OCC(F)(F)C(F)F)nc2)ccn1 (single isomer, unassigned) [Example 654, 2-isobutyramido-N-(1-(6-(2,2,3,3-tetrafluoropropoxy)pyridin-3-yl)ethyl)isonicotinamide]
CCC(=O)Nc1cc(C(=O)NC(C)c2ccc(OCC(F)(F)C(F)(F)F)nc2)ccn1 (single isomer, unassigned) [Example 1169, N-(1-(6-(2,2,3,3,3-pentafluoropropoxy)pyridin-3-yl)ethyl)-2-propionamidoisonicotinamide]
CC(NC(=O)c1ccnc(NC(=O)C2CC2)n1)c1ccc(OCC(F)(F)F)cc1 (single isomer, unassigned) [Example 405, 2-(cyclopropanecarboxamido)-N-(1-(4-(2,2,2-trifluoroethoxy)phenyl)ethyl)pyrimidine-4-carboxamide]
CC(=O)Nc1cc(C(=O)N(C)C(C)c2cnc(OCC(F)(F)F)c(C)c2)ccn1 (single isomer, unassigned) [Example 392, 2-acetamido-N-methyl-N-(1-(5-methyl-6-(2,2,2-trifluoroethoxy)pyridin-3-yl)ethyl)isonicotinamide]
CCC(=O)Nc1cc(C(=O)NCc2cnc(OCC(F)F)c(Cl)c2)cc(C)n1 [Example 618, N-((5-chloro-6-(2,2-difluoroethoxy)pyridin-3-yl)methyl)-2-methyl-6-propionamidoisonicotinamide]
CC(=O)Nc1cc(C(=O)NCc2ccc(OCC(F)(F)F)nc2N2CCOCC2)cc(C)n1 [Example 283, 2-acetamido-6-methyl-N-((2-morpholino-6-(2,2,2-trifluoroethoxy)pyridin-3-yl)methyl)isonicotinamide]
CCC(=O)Nc1cc(C(=O)NCc2ccc(OCC(F)F)nc2OC)ccn1 [Example 1152, N-((6-(2,2-difluoroethoxy)-2-methoxypyridin-3-yl)methyl)-2-propionamidoisonicotinamide]
Cc1cc(C(=O)NC(C)c2ccc(OCC(F)(F)C(F)(F)F)nc2)cc(NC(=O)C2CC2)n1 (single isomer, unassigned) [Example 837, 2-(cyclopropanecarboxamido)-6-methyl-N-(1-(6-(2,2,3,3,3-pentafluoropropoxy)pyridin-3-yl)ethyl)isonicotinamide]
CC(C)C(=O)Nc1cc(C(=O)NC(C)c2ccc(OCCC(F)(F)F)nc2)ccn1 (single isomer, unassigned) [Example 186, 2-isobutyramido-N-(1-(6-(3,3,3-trifluoropropoxy)pyridin-3-yl)ethyl)isonicotinamide]
Cc1cc(C(=O)NCc2cnc(OCC(F)F)c(Cl)c2)cc(NC(=O)C2CC2)n1 [Example 826, N-((5-chloro-6-(2,2-difluoroethoxy)pyridin-3-yl)methyl)-2-(cyclopropanecarboxamido)-6-methylisonicotinamide]
CCC(=O)Nc1cc(C(=O)NC(C)c2ccc(OCC(F)(F)F)nc2)ccn1 (single isomer, unassigned) [Example 11, 2-propionamido-N-(1-(6-(2,2,2-trifluoroethoxy)pyridin-3-yl)ethyl)isonicotinamide]
CC(NC(=O)c1ccnc(NC(=O)C2CCC2)n1)c1cnc(OCC(F)(F)F)c(Cl)c1 (single isomer, unassigned) [Example 213, N-(1-(5-chloro-6-(2,2,2-trifluoroethoxy)pyridin-3-yl)ethyl)-2-(cyclobutanecarboxamido)pyrimidine-4-carboxamide]
CCC(=O)Nc1cc(C(=O)NCc2cc(F)c(OCC(F)(F)F)nc2C)cc(C)n1 [Example 313, N-((5-fluoro-2-methyl-6-(2,2,2-trifluoroethoxy)pyridin-3-yl)methyl)-2-methyl-6-propionamidoisonicotinamide]
CCC(=O)Nc1cc(C(=O)NC(C)c2ccc(OCCC(F)(F)F)nc2)ccn1 (single isomer, unassigned) [Example 115, 2-propionamido-N-(1-(6-(3,3,3-trifluoropropoxy)pyridin-3-yl)ethyl)isonicotinamide]
CC(=O)Nc1cc(C(=O)NCc2ccc(O[C@H](C)C(F)(F)F)nc2)cc(C)n1 (single isomer, unassigned) [Example 320]
Cc1cc(C(=O)NCc2cnc(OCC(F)(F)F)c(C)c2)nc(NC(=O)C2CC2)n1 [Example 365, 2-(cyclopropanecarboxamido)-6-methyl-N-((5-methyl-6-(2,2,2-trifluoroethoxy)pyridin-3-yl)methyl)pyrimidine-4-carboxamide]
Cc1cc(C(=O)NC(C)c2ccc(OCC(F)(F)C(F)(F)F)nc2)cc(NC(=O)C(C)C)n1 (single isomer, unassigned) [Example 693, 2-isobutyramido-6-methyl-N-(1-(6-(2,2,3,3,3-pentafluoropropoxy)pyridin-3-yl)ethyl)isonicotinamide]
CCC(=O)Nc1nc(C)cc(C(=O)NC(C)c2cnc(OCC(F)(F)F)c(Cl)c2)n1 (single isomer, unassigned) [Example 214, N-(1-(5-chloro-6-(2,2,2-trifluoroethoxy)pyridin-3-yl)ethyl)-6-methyl-2-propionamidopyrimidine-4-carboxamide]
CC(C)C(=O)Nc1nccc(C(=O)NC(C)c2cnc(OCC(F)(F)F)c(Cl)c2)n1 (single isomer, unassigned) [Example 212, N-(1-(5-chloro-6-(2,2,2-trifluoroethoxy)pyridin-3-yl)ethyl)-2-isobutyramidopyrimidine-4-carboxamide]
COc1cc(C(C)NC(=O)c2ccnc(NC(=O)C3CC3)c2)cnc1OCC(F)(F)F (single isomer, unassigned) [Example 143, 2-(cyclopropanecarboxamido)-N-(1-(5-methoxy-6-(2,2,2-trifluoroethoxy)pyridin-3-yl)ethyl)isonicotinamide]
Cc1cc(C(=O)NCc2ccc(OCC(F)(F)C(F)(F)F)nc2)cc(NC(=O)C2CC2)n1 [Example 827, 2-(cyclopropanecarboxamido)-6-methyl-N-((6-(2,2,3,3,3-pentafluoropropoxy)pyridin-3-yl)methyl)isonicotinamide]
CC(=O)Nc1cc(C(=O)NC(C)c2ccc(OCC(C)(F)F)nc2)cc(C)n1 (single isomer, unassigned) [Example 783, 2-acetamido-N-(1-(6-(2,2-difluoropropoxy)pyridin-3-yl)ethyl)-6-methylisonicotinamide]
CC(=O)Nc1cc(C(=O)N(C)Cc2cnc(OCC(F)(F)F)c(C)c2)cc(C)n1 [Example 394, 2-acetamido-N,6-dimethyl-N-((5-methyl-6-(2,2,2-trifluoroethoxy)pyridin-3-yl)methyl)isonicotinamide]
CCC(=O)Nc1cc(C(=O)NC(C)c2ccc(OCC(F)F)nc2OC)ccn1 (single isomer, unassigned) [Example 1161, N-(1-(6-(2,2-difluoroethoxy)-2-methoxypyridin-3-yl)ethyl)-2-propionamidoisonicotinamide]
Cc1cc(CNC(=O)c2ccnc(NC(=O)C(C)C)c2)cnc1OCC(F)(F)F [Example 370, 2-isobutyramido-N-((5-methyl-6-(2,2,2-trifluoroethoxy)pyridin-3-yl)methyl)isonicotinamide]
Cc1cc(OCC(F)(F)F)ncc1CNC(=O)c1ccnc(NC(=O)C2CC2)n1 [Example 403, 2-(cyclopropanecarboxamido)-N-((4-methyl-6-(2,2,2-trifluoroethoxy)pyridin-3-yl)methyl)pyrimidine-4-carboxamide]
Cc1cc(C(=O)NCc2cnc(OCC(F)(F)F)cc2C)nc(NC(=O)C(C)C)n1 [Example 353, 2-isobutyramido-6-methyl-N-((4-methyl-6-(2,2,2-trifluoroethoxy)pyridin-3-yl)methyl)pyrimidine-4-carboxamide]
COc1nc(OCC(F)(F)F)ccc1CNC(=O)c1cc(C)nc(NC(=O)C2CC2)n1 [Example 181, 2-(cyclopropanecarboxamido)-N-((2-methoxy-6-(2,2,2-trifluoroethoxy)pyridin-3-yl)methyl)-6-methylpyrimidine-4-carboxamide]
